Experiment [1] concerns the target purified human autoBACE-2 (Homo sapiens (Human), UniProt Q9Y5Z0). The experiment in a line: BACE-2 Assay (BACE-HTRF assay). The class given is biochemical. The conditions noted are these: for Ki: Ki calculated from IC50 using the Cheng-Prusoff equation, read-out: BACE2 Ki; for inhibition at 10 µM: read-out: inhibition of BACE2 at 10 μM. As for the experimental part: Inhibitor IC50s at purified human autoBACE-2 are determined in a time-resolved endpoint proteolysis assay that measures hydrolysis of the QSY7-[…]-Eu-amide FRET peptide substrate (BACE-HTRF assay). […] DMSO is present at 5% final concentration in the assay. Following laser excitation of sample wells at 320 nm, the fluorescence signal at 620 nm is collected for 400 ms following a 50 μs delay on a RUBYstar HTRF plate reader (BMG Labtechnologies). Raw RFU data is normalized to maximum (1.0 nM BACE/DMSO) and minimum (no enzyme/DMSO) RFU values. […] The Ki values are calculated from the IC50 using the Cheng-Prusoff equation.

The target of experiment [2] is soluble human BACE1 catalytic domain (Homo sapiens (Human), UniProt P56817). As to the kind of experiment: BACE1 HTRF FRET Assay. To be noted: for inhibition at 10 µM: read-out: BACE1 inhibition, % Inh. at 10 μM, at 10 μM. In general terms: In TR-FRET formats the signal depends on donor and acceptor labels being close together.
Sequence of soluble human BACE1 catalytic domain (P56817 75-416): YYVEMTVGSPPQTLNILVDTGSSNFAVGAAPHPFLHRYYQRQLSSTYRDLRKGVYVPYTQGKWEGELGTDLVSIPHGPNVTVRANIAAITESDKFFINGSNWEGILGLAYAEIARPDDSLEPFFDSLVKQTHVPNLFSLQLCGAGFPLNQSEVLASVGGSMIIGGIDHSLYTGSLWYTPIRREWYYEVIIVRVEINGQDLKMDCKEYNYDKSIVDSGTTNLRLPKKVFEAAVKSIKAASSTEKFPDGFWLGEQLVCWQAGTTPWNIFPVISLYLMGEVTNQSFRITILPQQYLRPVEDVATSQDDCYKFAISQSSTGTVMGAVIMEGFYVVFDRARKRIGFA
The mark [3] stands for this setting: read-out: BACE1 Ki, Ki calculated from IC50 using the Cheng-Prusoff equation.

The Ki is the equilibrium dissociation constant of an inhibitor or competing ligand from its target. A word on the inhibition: it is the change of the read-out against control, counted positive when it falls.

Read-outs that look alike come from different tables or passages of the source.

Sequence of purified human autoBACE-2 (Q9Y5Z0 63-473): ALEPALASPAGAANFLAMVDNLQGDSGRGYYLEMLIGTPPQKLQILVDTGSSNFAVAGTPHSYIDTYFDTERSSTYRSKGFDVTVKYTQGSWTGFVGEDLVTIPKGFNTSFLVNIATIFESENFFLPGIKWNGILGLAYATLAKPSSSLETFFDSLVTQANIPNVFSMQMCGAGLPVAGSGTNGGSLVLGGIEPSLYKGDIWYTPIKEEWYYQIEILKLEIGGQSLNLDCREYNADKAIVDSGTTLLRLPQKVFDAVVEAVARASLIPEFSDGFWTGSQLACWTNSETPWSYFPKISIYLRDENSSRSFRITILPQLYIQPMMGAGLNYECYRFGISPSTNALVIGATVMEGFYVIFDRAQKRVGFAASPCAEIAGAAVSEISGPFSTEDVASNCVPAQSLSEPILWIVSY

On to `COc1cccc2cc(C(=O)Nc3ccc(F)c([C@]4(C)CS(=O)(=O)[C@@](C)(CC5CCOCC5)C(=N)N4)c3)[nH]c12` [Example 9cu-a], for which the figures for the Ki in experiment [1] and in experiment [2] (setting [3]) were 0.011 to 0.1 µM and 0.0467 µM, respectively.
In the case of `CC1(C)C(=N)N[C@](C)(c2sc(-c3cc(Cl)cc(C#N)c3)cc2Cl)CS1(=O)=O` [Example 27s], the Ki is at most 0.01 µM in experiment [1] and 0.0649 µM in experiment [2] (read-out: BACE1 Ki).
As to `CC1(C)C(=N)N[C@](C)(c2sc(-c3nnc(-c4ccc(Cl)cc4)o3)cc2F)CS1(=O)=O` [Example 27bf], the Ki was at most 0.02 µM in experiment [1] and 0.0309 µM in experiment [2] (read-out: BACE1 Ki).
As for `CC1(C)C(=N)N[C@](C)(c2sc(-c3cc(F)cc(-c4nnco4)c3)cc2F)CS1(=O)=O` [Example 27as], the figures for the Ki in experiment [1] and in experiment [2] (read-out: BACE1 Ki) were at most 0.02 µM and 0.0094 µM, respectively.
`CC1(C)C(=N)N[C@](C)(c2sc(-c3ccc(F)c(C(F)(F)F)c3)cc2Cl)CS1(=O)=O` [Example 27a]: the Ki in experiment [1] was under 0.2 µM; in experiment [2] (setting [3]), 0.172 µM.
The matching figures for `C[C@@]1(c2ccccn2)C(=N)N[C@](C)(c2cc(NC(=O)c3ccc(Cl)cn3)ccc2F)CS1(=O)=O` [Example 9cw-b]: 0.011 to 0.1 µM and 0.0727 µM.
Taken in the same sequence, the figures for `COc1cnc(C(=O)Nc2cc([C@]3(C)CS(=O)(=O)C(C)(C)C(=N)N3)c(F)cc2Br)cn1` [Example 9by] were 2.9 µM and 0.718 µM.
The matching figures for `CC1(C)C(=N)N[C@](C)(c2cc(NC(=N)c3ncc(F)cc3F)ccc2F)CS1(=O)=O` [Example 9ef]: 0.218 µM and 0.989 µM.
As for `CC1(C)C(=N)N[C@](C)(c2sc(-c3cncnc3)cc2Cl)CS1(=O)=O` [Example 24], the Ki in experiment [1] was 0.314 µM; in experiment [2] (setting [3]) it was 0.387 µM.
The matching figures for `CC1(C)C(=N)N[C@](C)(c2cc(NC(=O)c3ccc(C(F)(F)F)cn3)cc(F)c2F)CS1(=O)=O` [Example 9bf]: 0.011 µM and 0.025 µM.
The matching figures for `C[C@@]1(c2cc(NC(=O)c3ccc(F)cn3)ccc2F)CS(=O)(=O)[C@](C)(CC(F)(F)F)C(=N)N1` [Example 9dp-b]: 0.011 to 0.1 µM and 0.0745 µM.
For `C[C@@]1(c2sc(-c3cccc(C#N)c3)cc2F)CS(=O)(=O)[C@@](C)(c2cccc(F)c2)C(=N)N1` [Example 27br-a], the Ki in experiment [1] is 0.01 µM; in experiment [2] (read-out: BACE1 Ki), 0.0585 µM.
As to `C[C@@]1(C2CC2)C(=N)N[C@](C)(c2cc([N+](=O)[O-])ccc2F)CS1(=O)=O` [Entry 30], the inhibition at 10 µM is 29 to 47% in experiment [1] and 30% in experiment [2].
On to `CC1(C)C(=N)N[C@](C)(c2cc(NC(=O)c3ccc(Cl)cc3)cc(F)c2F)CS1(=O)=O` [Example 9bi], for which the Ki in experiment [1] is 0.009 µM; in experiment [2] (setting [3]), 0.022 µM.
Turning to `CC1(C)C(=N)N[C@](C)(c2sc(Br)cc2Cl)CS1(=O)=O` [Example 4-1], the Ki in experiment [1] is 0.5 to 10 µM; in experiment [2] (read-out: BACE1 inhibition, Ki), 1.5 µM.
As to `COc1ccc(C(=O)Nc2cc(F)c(F)c([C@]3(C)CS(=O)(=O)C(C)(C)C(=N)N3)c2F)nc1` [Example 9ac], the Ki in experiment [1] is 0.013 µM; in experiment [2] (setting [3]) it was 0.0189 µM.
Taken in the same sequence, the figures for `CC(C)[C@]1(C)C(=N)N[C@](C)(c2cc(NC(=O)c3ccc(F)cn3)ccc2F)CS1(=O)=O` [Example 9ea-b] were 0.011 to 0.1 µM and 0.224 µM.
As for `COc1cnc(C(=O)Nc2ccc(F)c([C@]3(C)CS(=O)(=O)[C@](C)(c4ccccn4)C(=N)N3)c2)cn1` [Example 9cy-b], the figures for the inhibition constant (Ki) in experiment [1] and in experiment [2] (setting [3]) were 0.101 to 0.7 µM and 0.209 µM, respectively.
Taken in the same sequence, the figures for `COc1ccc(C(=O)Nc2ccc(F)c([C@]3(C)CS(=O)(=O)[C@](C)(c4ccccn4)C(=N)N3)c2)nc1` [Example 9cx-b] were 0.101 to 0.7 µM and 0.282 µM.
With `Cc1nc2cc(CC3(C)C(=N)N[C@](C)(c4cc(F)ccc4F)CS3(=O)=O)ccc2s1` (stereo partly drawn) [Example 32-a], the inhibition at 10 µM in experiment [1] was in the range of 1 to 24%. For the same compound, the “BACE1 inhibition, % Inh. at 10 μM” value in experiment [2] (at 10 μM) was 0% Inh at 10 μM.
For `C[C@@]1(c2ccccn2)C(=N)N[C@](C)(c2cc(NC(=O)c3ccc(C(F)(F)F)cn3)ccc2F)CS1(=O)=O` [Example 9cz-b], the Ki is 0.101 to 0.7 µM in experiment [1] and 0.181 µM in experiment [2] (setting [3]).
In the case of `CC1(C)C(=N)N[C@](C)(c2sc(-c3nnc(-c4ccc(F)cc4)o3)cc2F)CS1(=O)=O` [Example 27bg], the Ki in experiment [1] is at most 0.02 µM; in experiment [2] (read-out: BACE1 Ki) it was 0.0793 µM.
Turning to `CC1(C)C(=N)N[C@](C)(c2sc(C(=O)NCc3cccc(-c4ccon4)c3)cc2Cl)CS1(=O)=O` [Example 22g], the Ki is 0.051 µM in experiment [1] and 0.736 µM in experiment [2] (setting [3]).
As to `CC1(C)C(=N)N[C@](C)(c2sc(N3Cc4cc(F)ccc4C3=O)cc2Cl)CS1(=O)=O` [Example 35a], the Ki in experiment [1] was 1.4 µM; in experiment [2] (read-out: BACE1 Ki), 6.08 µM.
For the compound `COc1cnc(C(=O)Nc2ccc(F)c([C@]3(C)CS(=O)(=O)[C@](C)(CC4CC4)C(=N)N3)c2)cn1` [Example 9dk-b], the values for the Ki in experiment [1] and in experiment [2] (setting [3]) were 0.011 to 0.1 µM and 0.0426 µM, respectively.
For `CC1(C)C(=N)N[C@](C)(c2cc(NC(=O)c3ccno3)ccc2F)CS1(=O)=O` [Example 9ax], the figures for the Ki in experiment [1] and in experiment [2] (setting [3]) were 0.022 µM and 0.082 µM, respectively.
Taken in the same sequence, the figures for `C[C@@]1(c2cccc(F)c2)C(=N)N[C@](C)(c2cc(NC(=O)c3ccc(C(F)(F)F)cn3)ccc2F)CS1(=O)=O` [Example 9de-b] were 0.101 to 0.7 µM and 0.175 µM.
On to `Cc1cnc(C(=O)Nc2cc(F)c(F)c([C@]3(C)CS(=O)(=O)C(C)(C)C(=N)N3)c2)cn1` [Example 9bo], for which the figures for the Ki in experiment [1] and in experiment [2] (setting [3]) were 0.022 µM and 0.069 µM, respectively.
Consider `COc1cnc(C(=O)Nc2ccc(F)c([C@]3(C)CS(=O)(=O)C(C)(C)C(=N)N3)n2)cn1` [Example 9cg], for which the Ki is 0.085 µM in experiment [1] and 0.0942 µM in experiment [2] (setting [3]).
On to `COc1ccc(-c2nnc(-c3cc(F)c([C@]4(C)CS(=O)(=O)C(C)(C)C(=N)N4)s3)o2)cc1` [Example 27bh], for which the Ki in experiment [1] is at most 0.02 µM; in experiment [2] (read-out: BACE1 Ki) it was 0.074 µM.
Regarding `COc1ccc(C(=O)Nc2ccc(F)c([C@]3(C)CS(=O)(=O)C(C)(C)C(=N)N3)n2)nn1` [Example 9ci], the Ki in experiment [1] was 0.044 µM; in experiment [2] (setting [3]), 0.219 µM.
The matching figures for `COc1cnc(C(=O)Nc2ccc(F)c([C@]3(C)CS(=O)(=O)[C@](C)(c4cccc(F)c4)C(=N)N3)c2)cn1` [Example 9dd-b]: 0.101 to 0.7 µM and 0.229 µM.
On to `C[C@]1(CC(F)(F)F)C(=N)N[C@](C)(c2sc(-c3cccc(-c4nnco4)c3)cc2F)CS1(=O)=O` [Example 27bk-a], for which the results for the Ki in experiment [1] and in experiment [2] (read-out: BACE1 Ki) were 0.009 µM and 0.0047 µM, respectively.
Regarding `COc1cnc(C(=O)Nc2cc(F)c(F)c([C@]3(C)CS(=O)(=O)C(C)(C)C(=N)N3)c2)cn1` [Example 9n], the results for the Ki in experiment [1] and in experiment [2] (setting [3]) were 0.012 µM and 0.0066 µM, respectively.
For the compound `C[C@@]1(c2ccc(F)cc2F)CS(=O)(=O)[C@@](C)(c2cccc(Br)c2)C(=N)N1` [Example 32g-a], the inhibition constant (Ki) was 0.145 µM in experiment [1] and 0.381 µM in experiment [2] (read-out: BACE1 Ki).
On to `COc1cnc(C(=O)Nc2ccc(F)c([C@]3(C)CS(=O)(=O)[C@](C)(CC(F)(F)F)C(=N)N3)c2)cn1` [Example 9dr-b], for which the values for the Ki in experiment [1] and in experiment [2] (setting [3]) were 0.101 to 0.7 µM and 0.137 µM, respectively.
Taken in the same sequence, the figures for `CC1=NOC(CNC(=O)c2cc(Cl)c([C@]3(C)CS(=O)(=O)C(C)(C)C(=N)N3)s2)C1` (stereo partly drawn) [Example 22f] were 1.8 µM and 0.616 µM.
On to `C[C@@]1(c2cccc(F)c2)C(=N)N[C@](C)(c2cc(N)ccc2F)CS1(=O)=O` [Entry 61], for which the inhibition at 10 µM in experiment [1] was 29 to 47%; in experiment [2], 27%.
Regarding `CC1(C)C(=N)N[C@](C)(c2sc(C(=O)NCc3cc(Cl)ccn3)cc2Cl)CS1(=O)=O` [Example 22u], the Ki in experiment [1] is 0.077 µM; in experiment [2] (setting [3]), 2.72 µM.
Taken in the same sequence, the figures for `COc1ccc(C(=O)Nc2ccc(F)c([C@]3(C)CS(=O)(=O)[C@@](C)(c4cccc(F)c4)C(=N)N3)c2)nc1` [Example 9dc-a] were 0.011 to 0.1 µM and 0.003 µM.
The matching figures for `COc1cnc(C(=O)Nc2ccc(F)c([C@]3(C)CS(=O)(=O)[C@](C)(C4CC4)C(=N)N3)c2)cn1` [Example 9cq-b]: 0.011 to 0.1 µM and 0.0967 µM.
As to `COc1cccc(-c2cc(F)c([C@]3(C)CS(=O)(=O)[C@@](C)(CC(F)(F)F)C(=N)N3)s2)c1` [Example 27bl-a], the Ki is 0.009 µM in experiment [1] and 0.223 µM in experiment [2] (read-out: BACE1 Ki).
The matching figures for `C[C@]1(CC(F)(F)F)C(=N)N[C@](C)(c2sc(-c3cccc(C#N)c3)cc2F)CS1(=O)=O` [Example 27bj-a]: 0.007 µM and 0.0357 µM.
On to `CC1(C)C(=N)N[C@](C)(c2nc(NC(=O)c3ccc(C(F)(F)F)cn3)ccc2F)CS1(=O)=O` [Example 9cf], for which the Ki in experiment [1] is 0.04 µM; in experiment [2] (setting [3]), 0.0257 µM.
Taken in the same sequence, the figures for `C[C@@]1(C2CCC2)C(=N)N[C@](C)(c2cc(NC(=O)c3ccc(Cl)cn3)ccc2F)CS1(=O)=O` [Example 9dw-b] were 0.011 to 0.1 µM and 0.0663 µM.
The matching figures for `COc1cnc(C(=O)Nc2ccc(F)c([C@]3(C)CS(=O)(=O)[C@@](C)(c4ccccn4)C(=N)N3)c2)cn1` [Example 9cy-a]: 0.011 to 0.1 µM and 0.0069 µM.
In the case of `COc1cccc2cc(-c3cc(F)c([C@]4(C)CS(=O)(=O)C(C)(C)C(=N)N4)s3)[nH]c12` [Example 27an], the Ki was at most 0.02 µM in experiment [1] and 0.021 µM in experiment [2] (read-out: BACE1 Ki).
Regarding `CC1(C)C(N)=N[C@](C)(c2cc(Br)ccc2F)CS1(=O)=O` [Example 3-3], in experiment [1], the Ki is 0.5 to 10 µM. In experiment [2], the inhibition at 10 µM was determined as 56%.

The values are drawn from patent US9499502B2, “5-substituted iminothiazines and their mono- and dioxides as BACE inhibitors, compositions, and their use” (Merck Sharp & Dohme Corp., priority 2011, dated 2016).
